# From patent publication US8557855B2, “Methods of using ryanodine antagonists in treating neural injury” (Allergan, Inc., priority 2002, dated 2013)
# What was measured:
# [1] = tested on: retinal ganglion cells; test: NMDA-induced injury of retinal ganglion cells in vivo in rabbits (cell count at RGC layer); conditions: rabbit
# Source text: (§1) To evaluate in vivo neuroprotective effects of dantrolene (DTL) on NMDA-induced injury of RGCs an imaging method to count cell numbers at the RGC layer in the isolated retinas was developed. Briefly, two weeks following intravitreal injection of vehicle or various test agents, a rabbit was euthanized and the treated eye was enucleated. A piece of retina (8 mm in diameter) was cut immediately below the optic nerve head, flat-mounted in a plastic chamber filled with HEPES-buffered Ames medium, and imaged at 25 fields in a 5×5 array with a 40× water immersion objective using an Olympus microscope (BX50WI) equipped with an epi-fluorescence unit. The images were taken with a Hamamatsu C4742-95 digital camera and Image-Pro Plus software (V4.5). The total number of neurons at the ganglion cell layer in these 25 fields was counted. The same measurements were conducted in one control group (rabbits treated with vehicle) and 4 test groups treated with 1) NMDA, 2) dantrolene+NMDA, 3) veratridine (Verat) a neurotoxin that damages retinal ganglion cells with intracellular sodium overload, and 4) dantrolene+veratridine. The results from the 4 test groups are normalized with respect to that of control.
# [2] = tested on: retinal ganglion cells; conditions: cited from earlier work
# [3] = tested on: retinal ganglion cells; format: in vivo; conditions: rabbit, intravitreal injection, two weeks after injection, normalized to vehicle control
# Source text: as §1
smiles,measurement,setting,value
CN[C@H](CC(=O)O)C(=O)O [NMDA],loss of cells at the RGC layer caused by NMDA alone,"[1]; intravitreal injection, two weeks after injection, normalized to vehicle control",53%
CC12CC3CC(C)(C1)CC(N)(C3)C2 [memantine],effect on RGC loss in glaucomatous monkeys,[2],ameliorates RGC loss
"O=C1CN(N=Cc2ccc(-c3ccc([N+](=O)[O-])cc3)o2)C(=O)N1 [dantrolene, 1-[[5-(p-Nitrophenyl)furfurylidene]amino]hydantoin]",neuroprotective effect on NMDA-induced damage to ganglion cells (FIG. 1),[1]; intravitreal injection of NMDA,ameliorated NMDA-induced damage to ganglion cells
same,NMDA-induced cell death at the RGC layer after pretreatment with dantrolene,"[1]; intravitreal injection, two weeks after injection, normalized to vehicle control, NMDA alone 53%",35%
same,cell loss caused by veratridine with dantrolene,[3]; veratridine alone 56%,50%
COc1ccc(C(=O)O[C@H]2CC[C@@]3(C)[C@@H]4CC[C@H]5[C@]6(O)C[C@H](O)[C@@]7(O)[C@@H](CN8C[C@@H](C)CC[C@H]8[C@@]7(C)O)[C@]6(O)C[C@@]53O[C@]24O)cc1OC [veratridine],cell loss at the RGC layer caused by veratridine alone,[3],56%
